Test results: PubChem BioAssay (NCI)
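GI50 = concentration required for 50% inhibition of growth. TGI is the concentration that stops growth completely.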

Key:
Test in all cases: growth of human tumour cells (NCI), 384-well format
[1] = system: M14 melanoma
[2] = system: K-562 leukemia
[3] = system: OVCAR-3 ovarian
[4] = system: MDA-MB-468 breast
[5] = system: HOP-62 NSCLC
[6] = system: HCC-2998 colon
[7] = system: OVCAR-4 ovarian
[8] = system: MOLT-4 leukemia
[9] = system: PC-3 prostate
[10] = system: NCI-H522 lung
[11] = system: HS 578T breast
[12] = system: SNB-75 CNS
[13] = system: 786-0 renal
[14] = system: UACC-257 melanoma
[15] = system: DU-145 prostate
[16] = system: EKVX NSCLC
[17] = system: KM12 colon
[18] = system: SK-OV-3 ovarian
[19] = system: NCI-H226 lung
[20] = system: HCT-15 colon
[21] = system: ACHN renal
[22] = system: HCT-116 colon
[23] = system: A498 renal
[24] = system: RXF 393 renal
[25] = system: LOX IMVI melanoma
[26] = system: SK-MEL-2 melanoma
[27] = system: NCI-H23 lung
[28] = system: TK-10 renal
[29] = system: RPMI-8226 leukemia
[30] = system: SF-268 CNS
[31] = system: SF-295 CNS
[32] = system: MDA-MB-435 melanoma
[33] = system: COLO 205 colon
[34] = system: U251 glioblastoma
[35] = system: HL-60(TB) leukemia
[36] = system: SK-MEL-5 melanoma
[37] = system: OVCAR-8 ovarian
[38] = system: CCRF-CEM leukemia
[39] = system: UACC-62 melanoma
[40] = system: NCI-H460 NSCLC
[41] = system: SF-539 CNS
[42] = system: A549 NSCLC
[43] = system: SW-620 colon
[44] = system: HOP-92 NSCLC
[45] = system: IGROV1 ovarian
[46] = system: MALME-3M melanoma
[47] = system: SN12C renal
[48] = system: HT29 colon
[49] = system: NCI/ADR-RES ovarian
[50] = system: SK-MEL-28 melanoma
[51] = system: BT-549 breast
[52] = system: NCI-H322M lung
[53] = system: SNB-19 CNS
[54] = system: MCF7 breast
[55] = system: CAKI-1 renal
[56] = system: OVCAR-5 ovarian
[57] = system: MDA-MB-231 breast
[58] = system: UO-31 renal
[59] = system: T-47D breast

In the case of CN(C)CC(C)(CN(C)C)C(=O)/C=C/c1c(Cl)cccc1Cl, the GI50 [1] is reported as 2090 nM, the TGI [1] is reported as 4000 nM and the GI50 [2] is reported as 4980 nM. For the same molecule, the TGI [2] was 15900 nM, the GI50 [3] was 1910 nM and the TGI [3] was 3370 nM. The GI50 [4] was 2100 nM, the TGI [4] was 3590 nM and the GI50 [5] was 2320 nM. For the same molecule, the TGI [5] was 3960 nM, the GI50 [6] was 2240 nM and the TGI [6] was 6900 nM. For the same molecule, the GI50 [7] was 1810 nM, the TGI [7] was 3210 nM and the GI50 [8] was 1540 nM. For the same molecule, the TGI [8] was 2890 nM, the GI50 [9] was 2520 nM and the TGI [9] was 5200 nM. For the same molecule, the GI50 [10] was 1710 nM, the TGI [10] was 3090 nM and the GI50 [11] was 2170 nM. The TGI [11] was 4240 nM, the GI50 [12] was 5160 nM and the TGI [12] was 11300 nM. The GI50 [13] was 1790 nM, the TGI [13] was 3220 nM and the GI50 [14] was 1950 nM. For the same molecule, the TGI [14] was 3810 nM, the GI50 [15] was 5180 nM and the TGI [15] was 16000 nM. It also gave a GI50 [16] of 4280 nM, a TGI [16] of 14100 nM and a GI50 [17] of 1220 nM. It also gave a TGI [17] of 2920 nM, a GI50 [18] of 4380 nM and a TGI [18] of 15400 nM. The GI50 [19] was 1760 nM, the TGI [19] was 3340 nM and the GI50 [20] was 1860 nM. For the same molecule, the TGI [20] was 3330 nM, the GI50 [21] was 1880 nM and the TGI [21] was 3310 nM. For the same molecule, the GI50 [22] was 2030 nM, the TGI [22] was 3530 nM and the GI50 [23] was 2290 nM. It also gave a TGI [23] of 4600 nM, a GI50 [24] of 2130 nM and a TGI [24] of 3590 nM. The GI50 [25] was 1670 nM, the TGI [25] was 3150 nM and the GI50 [26] was 2070 nM. For the same molecule, the TGI [26] was 3540 nM, the GI50 [27] was 2470 nM and the TGI [27] was 5040 nM. It also gave a GI50 [28] of 1610 nM, a TGI [28] of 3120 nM and a GI50 [29] of 200 nM. It also gave a TGI [29] of 346 nM, a GI50 [30] of 5610 nM and a TGI [30] of 15800 nM. The GI50 [31] was 11400 nM, the TGI [31] was 23600 nM and the GI50 [32] was 3900 nM. The TGI [32] was 11600 nM, the GI50 [33] was 2170 nM and the TGI [33] was 3660 nM. The GI50 [34] was 2120 nM, the TGI [34] was 3740 nM and the GI50 [35] was 1010 nM. It also gave a TGI [35] of 2180 nM, a GI50 [36] of 1390 nM and a TGI [36] of 2980 nM. It also gave a GI50 [37] of 1950 nM, a TGI [37] of 3410 nM and a GI50 [38] of 1580 nM. For the same molecule, the TGI [38] was 2960 nM, the GI50 [39] was 2160 nM and the TGI [39] was 4200 nM. The GI50 [40] was 1970 nM, the TGI [40] was 3590 nM and the GI50 [41] was 1900 nM. The TGI [41] was 3330 nM, the GI50 [42] was 3720 nM and the TGI [42] was 13200 nM. For the same molecule, the GI50 [43] was 2010 nM, the TGI [43] was 3480 nM and the GI50 [44] was 2170 nM. It also gave a TGI [44] of 3650 nM, a GI50 [45] of 1870 nM and a TGI [45] of 3360 nM. For the same molecule, the GI50 [46] was 2160 nM, the TGI [46] was 3610 nM and the GI50 [47] was 1880 nM. It also gave a TGI [47] of 3290 nM, a GI50 [48] of 1870 nM and a TGI [48] of 3410 nM. It also gave a GI50 [49] of 2140 nM, a TGI [49] of 3820 nM and a GI50 [50] of 10000 nM. For the same molecule, the TGI [50] was 21700 nM, the GI50 [51] was 2520 nM and the TGI [51] was 5730 nM. It also gave a GI50 [52] of 3860 nM, a TGI [52] of 12300 nM and a GI50 [53] of 4180 nM. The TGI [53] was 12400 nM, the GI50 [54] was 512 nM and the TGI [54] was 1760 nM. It also gave a GI50 [55] of 1810 nM and a TGI [55] of 3230 nM.

With C1=C/COCc2cc(ccc2OCCN2CCCC2)Nc2nccc(n2)-c2ccc(o2)COC/1 the GI50 [1] was 838 nM, the TGI [1] was 3050 nM and the GI50 [2] was 1390 nM. The TGI [2] was 4120 nM, the GI50 [3] was 1330 nM and the TGI [3] was 3230 nM. For the same molecule, the GI50 [4] was 1140 nM, the TGI [4] was 2370 nM and the GI50 [5] was 1200 nM. The TGI [5] was 2960 nM, the GI50 [6] was 1270 nM and the TGI [6] was 2830 nM. For the same molecule, the GI50 [56] was 590 nM, the TGI [56] was 4100 nM and the GI50 [7] was 2000 nM. The TGI [7] was 5100 nM, the GI50 [8] was 1020 nM and the TGI [8] was 2190 nM. The GI50 [9] was 1490 nM, the TGI [9] was 4880 nM and the GI50 [10] was 1090 nM. The TGI [10] was 2400 nM, the GI50 [11] was 1540 nM and the TGI [11] was 2970 nM. For the same molecule, the GI50 [12] was 1060 nM, the TGI [12] was 2270 nM and the GI50 [13] was 1520 nM. For the same molecule, the TGI [13] was 4970 nM, the GI50 [14] was 1460 nM and the TGI [14] was 2800 nM. The GI50 [15] was 1560 nM, the TGI [15] was 10500 nM and the GI50 [16] was 1490 nM. It also gave a TGI [16] of 3370 nM, a GI50 [57] of 1840 nM and a TGI [57] of 9870 nM. It also gave a GI50 [17] of 325 nM, a TGI [17] of 1920 nM and a GI50 [18] of 758 nM. It also gave a TGI [18] of 2880 nM, a GI50 [19] of 1210 nM and a TGI [19] of 4180 nM. For the same molecule, the GI50 [20] was 950 nM, the TGI [20] was 3230 nM and the GI50 [21] was 672 nM. The TGI [21] was 11400 nM, the GI50 [22] was 852 nM and the TGI [22] was 10400 nM. The GI50 [23] was 710 nM, the TGI [23] was 4220 nM and the GI50 [24] was 1250 nM. It also gave a TGI [24] of 2570 nM, a GI50 [25] of 892 nM and a TGI [25] of 2180 nM. The GI50 [27] was 879 nM, the TGI [27] was 2190 nM and the GI50 [28] was 2390 nM. For the same molecule, the TGI [28] was 9400 nM, the GI50 [29] was 1790 nM and the TGI [29] was 3220 nM. For the same molecule, the GI50 [58] was 1640 nM, the TGI [58] was 3850 nM and the GI50 [30] was 256 nM. The TGI [30] was 964 nM, the GI50 [31] was 2050 nM and the TGI [31] was 4490 nM. For the same molecule, the GI50 [32] was 1470 nM, the TGI [32] was 4090 nM and the GI50 [59] was 613 nM. It also gave a TGI [59] of 2430 nM, a GI50 [33] of 1480 nM and a TGI [33] of 3920 nM. For the same molecule, the GI50 [34] was 1920 nM, the TGI [34] was 4790 nM and the GI50 [35] was 479 nM. It also gave a TGI [35] of 1680 nM, a GI50 [36] of 1030 nM and a TGI [36] of 2260 nM. For the same molecule, the GI50 [37] was 1680 nM, the TGI [37] was 4270 nM and the GI50 [38] was 1530 nM. It also gave a TGI [38] of 2920 nM, a GI50 [39] of 798 nM and a TGI [39] of 2060 nM. It also gave a GI50 [40] of 792 nM, a TGI [40] of 2270 nM and a GI50 [41] of 1610 nM. The TGI [41] was 3000 nM, the GI50 [42] was 1250 nM and the TGI [42] was 4060 nM. It also gave a GI50 [43] of 2440 nM, a TGI [43] of 8150 nM and a GI50 [44] of 1570 nM. It also gave a TGI [44] of 5460 nM, a GI50 [45] of 433 nM and a TGI [45] of 1900 nM. The GI50 [46] was 1060 nM, the TGI [46] was 2270 nM and the GI50 [47] was 587 nM. The TGI [47] was 1890 nM, the GI50 [48] was 1290 nM and the TGI [48] was 2820 nM. For the same molecule, the GI50 [49] was 1970 nM, the TGI [49] was 4000 nM and the GI50 [50] was 1430 nM. The TGI [50] was 3000 nM, the GI50 [51] was 1720 nM and the TGI [51] was 3210 nM. The GI50 [52] was 1320 nM, the TGI [52] was 3510 nM and the GI50 [53] was 2580 nM. It also gave a TGI [53] of 10600 nM, a GI50 [54] of 563 nM and a TGI [54] of 1980 nM. For the same molecule, the GI50 [55] was 452 nM and the TGI [55] was 2340 nM.
